Reference: patent US7223759B2, “Antibacterial 3,5-diaminopiperidine-substituted aromatic and heteroaromatic compounds” (Anadys Pharmaceuticals, Inc., priority 2003, dated 2007)
Where two headings read alike, the source gives them in different places.

System: Escherichia coli (ATCC25922) or Staphylococcus aureus (ATCC25923)
Experiment: Antibacterial MIC, microdilution method in Mueller-Hinton medium
Assay type: cell-based
Details: for MIC: Escherichia coli, 18 h, read-out: Potency (MIC)
Outline: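 Read after 18 h incubation at 35° C, MIC is the lowest compound level that blocked growth. Compounds were tested in duplicate over 64–0.5 μg/ml two-fold dilutions using Mueller-Hinton microdilution per NCCLS standard.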

[1] = MIC in E. coli or S. aureus, two-fold serial dilutions 64 to 0.5 μg/ml in duplicate, 18 hours of incubation at 35° C.

SMILES	MIC	MIC [1]	other results
NC[C@@H]1C[C@@H](O)CN1c1nc(Nc2ccc(C(=O)CC(=O)Nc3ccc4c(c3)OC(F)(F)O4)cc2)nc(N2C[C@H](N)C[C@H](N)C2)n1 [3-{4-[4-((2S,4R)-2-Aminomethyl-4-hydroxy-pyrrolidin-1-yl)-6-((3R,5S)-3,5-diamino-piperidin-1-yl)-[1,3,5]triazin-2-ylamino]-phenyl}-N-(2,2-difluoro-benzo[1,3]dioxol-5-yl)-3-oxo-propionamide]	< 16 µg/mL	–	–
Cl.O=C(Oc1ccccc1)c1ccc(Nc2nc(N3CCCCC3)nc(N3CCCC3)n2)cc1O [4-[4-((3S,5R)-3,5-Diamino-piperidin-1-yl)-6-((3R,4S)-3,4-dihydroxy-pyrrolidin-1-yl)-[1,3,5]triazin-2-ylamino]-2-hydrooxy-benzoic acidphenyl ester]	–	< 64 µg/mL	–
COc1ccc(Nc2ccc(Nc3nc(N4C[C@H](N)C[C@H](N)C4)nc(N4C[C@H](N)C[C@H](N)C4)n3)cc2)cc1 [N-[4-(4-methoxy-phenylamino)-phenyl]-4,6-Bis-((3R,5S)-3,5-diamino-piperidin-1-yl)-[1,3,5]triazine-2-amine]	–	< 64 µg/mL	–
COc1nc(Nc2ccc(NC(=O)c3ccc4ccccc4c3O)cc2)nc(N2C[C@H](N)C[C@H](N)C2)n1 [1-Hydroxy-naphthalene-2-carboxylic acid {4-[4-((3R,5S)-3,5-diamino-piperidin-1-yl)-6-methoxy-[1,3,5]triazin-2-ylamino]-phenyl}-amide]	< 16 µg/mL	–	–
Cl.c1ccc(N2CCN(c3nc(N4CCCCC4)nc(N4CCCCC4)n3)CC2)nc1 [2-[4-(4-Fluoro-phenyl)-piperiazin-1-yl]-4,6-Bis-((3R,5S)-3,5-diamino-piperidin-1-yl)-[1,3,5]triazine]	–	> 64 µg/mL	–
C[C@H](Nc1nc(N2C[C@H](N)C[C@H](N)C2)nc(N2C[C@H](N)C[C@H](N)C2)n1)c1cccc2ccccc12 [N-((S)-1-naphthalen-1-yl-ethyl)-4,6-Bis-((3R,5S)-3,5-diamino-piperidin-1-yl)-[1,3,5]triazine-2-amine]	> 64 µg/mL	–	–
N[C@@H]1C[C@H](N)CN(c2nc(Nc3ccc(C(=O)CC(=O)Nc4cc(C(F)(F)F)ccc4Cl)cc3)nc(N3C[C@H](N)C[C@H](N)C3)n2)C1 [N-{4-[2-(2-chloro-5-trifluoromethyl-phenylcarbamoyl)-acetyl]-phenyl}-4,6-Bis-((3R,5S)-3,5-diamino-piperidin-1-yl)-[1,3,5]triazine-2-amine]	< 16 µg/mL	–	–
N[C@@H]1C[C@H](N)CN(c2nc(NCc3ccc4c(c3)OCO4)nc(N3C[C@H](N)C[C@H](N)C3)n2)C1 [N-benzo[1,3]dioxol-5-ylmethyl-4,6-Bis-((3R,5S)-3,5-diamino-piperidin-1-yl)-[1,3,5]triazine-2-amine]	> 64 µg/mL	–	–
CCCCC(=O)Nc1ccc(S(=O)(=O)Nc2ccc(Nc3nc(N4C[C@H](N)C[C@H](N)C4)nc(N4C[C@H](N)C[C@H](N)C4)n3)cc2O)cc1 [N-[3-hydroxy-4-(4-pentanoylamino-benzenesulfonylamino)-phenyl]-4,6-Bis-((3R,5S)-3,5-diamino-piperidin-1-yl)-[1,3,5]triazine-2-amine]	< 64 µg/mL	–	–
CC(=O)Nc1ccc(Nc2nc(N3C[C@H](N)C[C@H](N)C3)nc(N3C[C@H](N)C[C@H](N)C3)n2)cc1O [N-(4-acetylamino-3-hydroxy-phenyl)-4,6-Bis-((3R,5S)-3,5-diamino-piperidin-1-yl)-[1,3,5]triazine-2-amine]	> 64 µg/mL	–	–
Cc1ccc(C(=O)Nc2ccc(Nc3nc(N4CCCCC4)nc(N4CCCC4)n3)cc2O)cc1.Cl [drawing 285, NM-{4-[4-((3R,5S)-3,5-Diamino-piperidin-1-yl)-6-((3R,4S)-3,4-diamino-pyrrolidin-1-yl)-[1,3,5]triazin-2-ylamino]-2-hydroxy-phenyl}-4-methyl-benzamide]	–	–	Potency (MIC) [1]: + (+ means MIC<64 μg/ml in E. coli or S. aureus)
N[C@@H]1C[C@H](N)CN(c2nc(Nc3ccc(C(=O)CC(=O)Nc4ccc5c(c4)OC(F)(F)O5)cc3)nc(N3C[C@H](N)C[C@H](N)C3)n2)C1 [N-{4-[2-(2,2-difluoro-benzo[1,3]dioxol-5-ylcarbamoyl)-acetyl]-phenyl}-4,6-Bis-((3R,5S)-3,5-diamino-piperidin-1-yl)-[1,3,5]triazine-2-amine]	< 16 µg/mL	–	–
N[C@@H]1C[C@H](N)CN(c2nc(NC3CCNC3)nc(N3C[C@H](N)C[C@H](N)C3)n2)C1 (stereo partly drawn) [N-pyrrolidin-3-yl-4,6-Bis-((#r,5S)-3,5-diamino-piperidin-1-yl)-[1,3,5]triazine-2-amine]	–	> 64 µg/mL	–
NC[C@@H]1C[C@H](N)CN1c1nc(Nc2ccc(S(=O)(=O)Nc3ccc4cn[nH]c4c3)cc2)nc(N2C[C@H](N)C[C@H](N)C2)n1 [4-[4-((2S,4S)-4-Amino-2-aminomethyl-pyrrolidin-1-yl)-6-((3R,5S)-3,5-diamino-piperidin-1-yl)-[1,3,5]triazin-2-ylamino]-N-(1H-indazol-6-yl)-benzenesulfonamide]	> 64 µg/mL	–	–
N[C@@H]1C[C@H](N)CN(c2nc(Nc3ccc(C(=O)CC(=O)Nc4ccc(F)c(F)c4)cc3)nc(N3C[C@H](N)C[C@H](N)C3)n2)C1 [N-{4-[2-(3,4-difluoro-phenylcarbamoyl)-acetyl]-phenyl}-4,6-Bis-((3R,5S)-3,5-diamino-piperidin-1-yl)-[1,3,5]triazine-2-amine]	< 16 µg/mL	–	–
C=CCOC1OC(CO)C(O)C(O)C1Nc1nc(N2C[C@H](N)C[C@H](N)C2)nc(N2C[C@H](N)C[C@H](N)C2)n1.Cl (stereo partly drawn) [N-(2-allyloxy-4,5-dihydroxy-6-hydroxymethyl-tetrahydro-pyran-3-yl)-4,6-Bis-((3R,5S)-3,5-diamino-piperidin-1-yl)-[1,3,5]triazine-2-amine]	–	> 64 µg/mL	–
N[C@@H]1C[C@H](N)CN(c2nc(Nc3ccc(C(=O)c4ccccc4)cc3)nc(N3C[C@H](N)C[C@H](N)C3)n2)C1 [N-(4-benzoyl-phenyl)-4,6-Bis-((3R,5S)-3,5-diamino-piperidin-1-yl)-[1,3,5]triazine-2-amine]	< 64 µg/mL	–	–
Cl.O=C(CC(O)c1ccc(Nc2nc(N3CCCCC3)nc(N3CCCCC3)n2)cc1)Nc1ccccc1C(F)(F)F [N-{4-[1-hydroxy-2-(2-trifluoromethyl-phenylcarbazmoyl)-ethyl]-phenyl}-4,6-Bis-((3R,5S)-3,5-diamino-piperidin-1-yl)-[1,3,5]triazine-2-amine]	–	< 64 µg/mL	–
N[C@@H]1C[C@H](N)CN(c2nc(Nc3ccc(NC(=O)c4c(O)ccc5ccccc45)cc3)nc(N3C[C@H](N)C[C@H](N)C3)n2)C1 [N-{4-[(2-hydroxy-naphthalene-1-carbonyl)-amino]-phenyl}-4,6-Bis-((3R,5S)-3,5-diamino-piperidin-1-yl)-[1,3,5]triazine-2-amine]	< 16 µg/mL	–	–
N[C@@H]1C[C@H](N)CN(c2nc(NCc3ccc(-c4ccccc4)cc3)nc(N3C[C@H](N)C[C@H](N)C3)n2)C1 [N-biphenyl-4-ylmethyl-4,6-Bis-((3R,5S)-3,5-diamino-piperidin-1-yl)-[1,3,5]triazine-2-amine]	< 64 µg/mL	–	–
COc1ccc(C(=O)Nc2ccc(Nc3nc(N4C[C@H](N)C[C@H](N)C4)nc(N4C[C@H](N)C[C@H](N)C4)n3)cc2O)cc1 [N-[3-hydroxy-4-(4-methoxy-benzoylamino)-phenyl]-4,6-Bis-((3R,5S)-3,5-diamino-piperidin-1-yl)-[1,3,5]triazine-2-amine]	< 16 µg/mL	–	–
CCC(=O)Nc1ccc(Nc2nc(N3C[C@H](N)C[C@H](N)C3)nc(N3C[C@H](N)C[C@H](N)C3)n2)cc1O [N-(3-hydroxy-4-propionylamino-phenyl)-4,6-Bis-((3R,5S)-3,5-diamino-piperidin-1-yl)-[1,3,5]triazine-2-amine]	–	< 64 µg/mL	–
CC(=O)N1CCN(c2nc(Nc3ccc(S(=O)(=O)Nc4ccc5cn[nH]c5c4)cc3)nc(N3C[C@H](N)C[C@H](N)C3)n2)CC1 [4-[4-(4-Acetyl-piperazin-1-yl)-6-((3R,5S)-3,5-diamino-piperidin-1-yl)-[1,3,5]triazin-2-ylamino]-N-(1H-indazol-6-yl)-benzenesulfonamide]	–	> 64 µg/mL	–
Cl.Oc1cccc(C2CCN(c3nc(N4CCCCC4)nc(N4CCCCC4)n3)CC2)c1 [3-[1-(4,6-Bis-((3R,5S)-3,5-diamino-piperidin-1-yl)-[1,3,5]triazin-2-yl)-piperidin-4-yl]-phenyl]	–	> 64 µg/mL	–
Cl.N[C@@H]1C[C@H](N)CN(c2nc(Nc3ccccc3S(N)(=O)=O)nc(N3C[C@H](N)C[C@H](N)C3)n2)C1 [N-(2-sulfamoyl-phenyl)-4,6-Bis-((3R,5S)-3,5-diamino-piperidin-1-yl)-[1,3,5]triazine-2-amine]	–	> 64 µg/mL	–
CC(C)c1cc(C(=O)Nc2ccc(Nc3nc(N4C[C@H](N)C[C@H](N)C4)nc(N4C[C@H](N)C[C@H](N)C4)n3)cc2)c(O)c(C(C)C)c1 [N-[4-(2-hydroxy-3,5-diisopropyl-benzoylamino)-phenyl]-4,6-Bis-((3R,5S)-3,5-diamino-piperidin-1-yl)-[1,3,5]triazine-2-amine]	< 16 µg/mL	–	–
N[C@@H]1C[C@H](N)CN(c2nc(Nc3ccc(C(=O)CC(=O)Nc4cccc(OC(F)(F)F)c4)cc3)nc(N3C[C@H](N)C[C@H](N)C3)n2)C1 [N-{4-[2-(3-trifluoromethoxy-phenylcarbamoyl)-acetyl]-phenyl}-4,6-Bis-((3R,5S)-3,5-diamino-piperidin-1-yl)-[1,3,5]triazine-2-amine]	< 16 µg/mL	–	–
CC(C)(C)C(=O)Nc1ccc(Nc2nc(N3CCCCC3)nc(N3CCCCC3)n2)cc1O.Cl [N-[4-(2,2-dimethyl-propionylammino)-3-hydroxy-phenyl]-4,6-Bis-((3R,5S)-3,5-diamino-piperidin-1-yl)-[1,3,5]triazine-2-amine]	–	< 64 µg/mL	–
N[C@@H]1C[C@H](N)CN(c2nc(Nc3ccc(C(=O)Nc4ccc(S(=O)(=O)Nc5ccc6cn[nH]c6c5)cc4)c(O)c3)nc(N3C[C@H](N)C[C@H](N)C3)n2)C1 [N-(3-hydroxy-4-[4-(1H-indazol-6-ylsulfamoyl)-phenylcarbamoyl]-phenyl)-4,6-Bis-((3R,5S)-3,5-diamino-piperidin-1-yl)-[1,3,5]triazine-2-amine]	< 64 µg/mL	–	–
